Values quoted from earlier work, collected in patent US20110212474A1, “ABNORMAL ALTERATIONS OF PKC ISOZYMES PROCESSING IN ALZHEIMER'S DISEASE PERIPHERAL CELLS” (BLANCHETTE ROCKEFELLER NEUROSCIENCES INSTITUTE, priority 2009, published 2011).

Tests used:
[1] = tested on: Aβ (1-42); settings: transgenic mice with human AD genes
[2] = tested on: PKC; settings: postischemic/hypoxic treatment
[3] = tested on: PKC-α; settings: non-AD (AC) fibroblasts, nanomolar concentrations of Aβ (1-40)
[4] = tested on: PKC-γ; settings: AD fibroblasts, Aβ (1-40)

| Compound | effect on Aβ (1-42) levels in the brains [1] | effect on ischemia-induced deficits in synaptogenesis, neurotrophic activity, and spatial learning and memory [2] | decrease in PKC-α immunoreactivity [3] [%] | reduction of PKC-γ immunoreactivity [4] [%] |
| --- | --- | --- | --- | --- |
| CCC/C=C/C=C/C(=O)O[C@H]1/C(=C/C(=O)OC)C[C@H]2C[C@H]([C@@H](C)O)OC(=O)C[C@H](O)C[C@@H]3C[C@H](OC(C)=O)C(C)(C)[C@](O)(C[C@@H]4C/C(=C/C(=O)OC)C[C@H](/C=C/C(C)(C)[C@]1(O)O2)O4)O3 [bryostatin-1] | reduce Aβ (1-42) levels | effectively rescued ischemia-induced deficits | – | – |
| Aβ (1-40): Aβ peptide, "short form," 40 amino acids in length, from Amyloid Precursor Protein | – | – | 75 | 70 |
